The subject of data set [1] is LoVo. As to the kind of experiment: Antiproliferative activity against human LoVo cells assessed as inhibition of cell growth incubated for 72 hrs by CCK-8 method. It counts as functional, cell-based. (Tetrazolium dyes change colour on reduction, which living cells bring about.)
The nature of data set [2]: AUC (0 to 24 hrs) in ICR mouse at 1 mg/kg, iv measured upto 24 hrs by LC-MS/MS analysis. In kind it is ADME, organism-based. As to conditions: in vivo.
The test system of data set [3] is LoVo. As to the kind of experiment: Antitumor activity against human LoVo cells xenografted in female BALB/c nude mouse assessed as tumor growth inhibition at 60 mg/kg, IG administered once daily for 27 days. It counts as functional. As to conditions: po, 648 h, time 27 day, read-out: TGI. On the technique in general: Xenograft models place foreign cells or tissue in a host animal.

Data set [4] is described as follows: Half life in ICR mouse at 1 mg/kg, iv measured upto 24 hrs by LC-MS/MS analysis. It counts as ADME, organism-based. As to conditions: in vivo.
Data set [5] can be described thus: Volume of distribution in ICR mouse at 1 mg/kg, iv measured upto 24 hrs by LC-MS/MS analysis. It counts as ADME, organism-based. As to conditions: in vivo.
For data set [6], the target named is T1, Wee1-like protein kinase (Homo sapiens, UniProt P30291). Kind of data set: Inhibition of Wee1 in human U2OS cells assessed as reduction in CDK1 phosphorylation measured for 1 hr by Western blot analysis. In kind it is cell-based.
T1 sequence (P30291 whole entry, the tested form may be a part): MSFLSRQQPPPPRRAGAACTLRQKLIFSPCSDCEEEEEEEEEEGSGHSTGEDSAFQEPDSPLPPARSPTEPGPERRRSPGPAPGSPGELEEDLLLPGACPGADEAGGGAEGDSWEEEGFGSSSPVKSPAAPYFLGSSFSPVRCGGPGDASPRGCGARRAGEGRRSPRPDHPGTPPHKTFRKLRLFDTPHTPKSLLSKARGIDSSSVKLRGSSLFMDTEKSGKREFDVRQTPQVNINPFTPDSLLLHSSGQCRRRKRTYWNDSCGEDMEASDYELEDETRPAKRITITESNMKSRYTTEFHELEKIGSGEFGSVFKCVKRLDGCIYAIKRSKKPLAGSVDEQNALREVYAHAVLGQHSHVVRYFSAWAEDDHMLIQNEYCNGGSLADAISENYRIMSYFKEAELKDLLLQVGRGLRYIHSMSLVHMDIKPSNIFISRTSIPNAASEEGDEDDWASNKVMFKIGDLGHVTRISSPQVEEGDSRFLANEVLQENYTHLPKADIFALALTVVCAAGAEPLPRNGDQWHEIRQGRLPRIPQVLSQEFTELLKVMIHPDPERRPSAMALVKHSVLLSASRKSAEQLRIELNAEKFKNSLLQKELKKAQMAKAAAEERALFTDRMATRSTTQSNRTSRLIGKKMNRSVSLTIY
Data set [7] deals with T1, Wee1-like protein kinase. Kind of data set: Inhibition of human Wee1 (215 to 647 residues) using polyornithine/tyrosine (4:1) as substrate incubated for 5 mins in presence of ATP by micro beta plate reader analysis.
Data set [8] in a line: Metabolic stability in mouse liver microsome assessed as parent compound remaining measured at 60 mins by LCMS/MS analysis. In kind it is ADME. As to conditions: liver microsomes, read-out: Stability. In general terms: Microsomes from liver hold many membrane-bound enzymes, among them those of drug oxidation.
The nature of data set [9]: Bioavailability in ICR mouse at 60 mg/kg, IG measured upto 24 hrs by LC-MS/MS analysis. In kind it is ADME, organism-based. As to conditions: in vivo, po.
Data set [10] in a line: Toxicity in female BALB/c nude mouse xenografted with human LoVo cells assessed as body weight loss at 60 mg/kg, IG administered once daily for 27 days. It counts as organism-based. As to conditions: in vivo, po, 648 h, time 27 day.
The nature of data set [11]: Clearance in ICR mouse at 1 mg/kg, iv measured upto 24 hrs by LC-MS/MS analysis. It counts as ADME, organism-based. As to conditions: in vivo.
Data set [12] is described as follows: AUC (0 to 24 hrs) in ICR mouse at 60 mg/kg, IG measured upto 24 hrs by LC-MS/MS analysis. In kind it is ADME, organism-based. As to conditions: in vivo, po.
A further data set deals with A-427. Kind of data set: Antiproliferative activity against human A-427 cells assessed as inhibition of cell growth incubated for 72 hrs by CCK-8 assay. As to conditions: A-427, 72 h. It counts as functional, cell-based.
The nature of data set [13]: Metabolic stability in human liver microsome assessed as parent compound remaining measured at 60 mins by LCMS/MS analysis. As to conditions: liver microsomes, read-out: Stability. It counts as ADME.
A short description of data set [14]: Half life in ICR mouse at 60 mg/kg, IG measured upto 24 hrs by LC-MS/MS analysis. It counts as ADME, organism-based. As to conditions: in vivo, po.
A short description of data set [15]: Acute toxicity in female C57 mouse assessed as body weight loss at 2000 mg/kg, IG measured for 7 days. In kind it is organism-based. As to conditions: in vivo, po, 168 h, time 7 day.

In the case of `C=CCn1c(=O)c2cnc(Nc3ccc(N4CCN(CC)CC4)cc3)nc2n1-c1cccc(-c2cnccn2)n1`, the half-maximal inhibitory concentration (IC50) (as a rule, the midpoint of a concentration-inhibition curve) in the data set with LoVo [1] is 92 nM; on Wee1-like protein kinase [6], 341 nM; on Wee1-like protein kinase [7], 1.6 nM; in the data set with A-427, 88 nM. Also, the AUC(0-t) (in general, exposure summed from dosing to a finite time, without extrapolation to infinity) at 24 h in data set [2] came out at 151 ng·h/mL; in data set [12] it was 4200 ng·h/mL. For the same molecule, the inhibition in vivo at 60 mg/kg in the data set on LoVo [3] is 69%. The half-life – broadly, the time needed for the level to fall by half in the phase considered – in [4] is 0.8 h. In addition, the Vd (in general, the apparent volume that relates the amount in the body to the concentration in plasma or blood) in data set [5] amounted to 7.4 L/kg. The remaining at 1 h in data set [8] worked out at 18%; in data set [13], 65.2%. Moreover, the bioavailability (usually dose-corrected exposure relative to a reference, in per cent) in data set [9] came out at 46.5%. Besides, the Activity entry in data set [10] is “Toxic”. The clearance (as a rule, a measure of how efficiently the substance is removed, as volume per time) in data set [11] is 108 mL/min/kg.

In the case of `C=CCn1c(=O)c2cnc(Nc3ccc(N4CCN(C)CC4)cc3)nc2n1-c1cccc(-c2ncc(C)cn2)n1`, the IC50 was found to be 555 nM in the data set with LoVo [1], 367 nM on Wee1-like protein kinase [6], 2.2 nM at Wee1-like protein kinase [7] and 476 nM in the data set with A-427. Further, the results for the area under the curve AUC(0-t) at 24 h in [2] and in data set [12] were 1160 ng·h/mL and 58100 ng·h/mL, respectively. In addition, in the data set with LoVo [3], the inhibition in vivo at 60 mg/kg amounted to 72%. For the same molecule, the figures for the half-life in data set [4] and in data set [14] were 1.65 h and 3.9 h, respectively. This molecule had a Vd in data set [5] of 1.98 L/kg. Moreover, the remaining at 1 h in data set [8] was 59.4%; in data set [13] it was 71.2%. Besides, the bioavailability in [9] was found to be 83.1%. For the same molecule, the clearance in data set [11] was 14.2 mL/min/kg.

`C=CCn1c(=O)c2cnc(Nc3ccc(N4CCC(N5CCN(C)CC5)CC4)cc3)nc2n1-c1cccc(-c2cnccn2)n1`: the IC50 worked out at 166 nM in the data set with LoVo [1], 401 nM on Wee1-like protein kinase [6], 2 nM on Wee1-like protein kinase [7] and 192 nM in the data set on A-427. Also, the AUC(0-t) at 24 h in [2] was 699 ng·h/mL; in [12], 20300 ng·h/mL. The inhibition in vivo at 60 mg/kg with LoVo [3] came to 58%. Besides, in data set [4], the half-life is 2.55 h. The volume of distribution (Vd) in data set [5] is 5.6 L/kg. Besides, the results for the remaining at 1 h in data set [8] and in data set [13] were 78.5% and 76.3%, respectively. In data set [9], this molecule registered a bioavailability of 48.5%. This molecule had a clearance in data set [11] of 23.8 mL/min/kg.

As for `C=CCn1c(=O)c2cnc(Nc3ccc(N4CCN(C)CC4)cc3)nc2n1-c1cccc(-c2cccnn2)n1`, the exposure AUC(0-t) at 24 h in data set [2] was determined as 170 ng·h/mL; in [12] it was 4270 ng·h/mL. Further, the half-life was 2.45 h in [4] and 8.65 h in data set [14]. The molecule also yielded a Vd in [5] of 11.7 L/kg. Besides, the IC50 on Wee1-like protein kinase [7] was determined as 2 nM; in the data set on A-427, 206 nM. Also, the remaining at 1 h stood at 55.1% in data set [8] and 46.5% in data set [13]. In data set [9], this molecule displayed a bioavailability of 41.9%. In data set [11], the clearance was 88.2 mL/min/kg.

Turning to `C=CCn1c(=O)c2cnc(Nc3ccc(N4CCC(N5CCN(C)CC5)CC4)cc3)nc2n1-c1cccc(-c2ncccn2)n1`, the concentration for half-maximal inhibition (IC50) in the data set on LoVo [1] worked out at 714 nM; at Wee1-like protein kinase [6], 914 nM; at Wee1-like protein kinase [7], 3.7 nM; in the data set on A-427 it was 585 nM. In addition, the exposure AUC(0-t) at 24 h in data set [2] was 980 ng·h/mL; in data set [12], 32400 ng·h/mL. In addition, the values for the half-life in data set [4] and in data set [14] were 2.39 h and 3.71 h, respectively. The same molecule returned a volume of distribution (Vd) in data set [5] of 3.72 L/kg. The remaining at 1 h was 97.1% in data set [8] and 88.9% in data set [13]. The molecule also returned a bioavailability in data set [9] of 55.1%. For the same molecule, the clearance in data set [11] is 16.8 mL/min/kg.

Take `C=CCn1c(=O)c2cnc(Nc3ccc(N4[C@@H]5CC[C@H]4CN(C)C5)cc3)nc2n1-c1cccc(-c2ncccn2)n1`: the IC50 stood at 243 nM with LoVo [1], 166 nM at Wee1-like protein kinase [6], 26 nM at Wee1-like protein kinase [7] and 115 nM with A-427. Also, the AUC(0-t) at 24 h in [2] worked out at 124 ng·h/mL; in data set [12] it was 6810 ng·h/mL. For the same molecule, the inhibition in vivo at 60 mg/kg with LoVo [3] was 53%. Moreover, the half-life in [4] was 1.38 h; in [14], 2.97 h. In data set [5], the distribution volume (Vd) came to 13.4 L/kg. Also, the remaining at 1 h in data set [8] turned out to be 82.3%; in data set [13] it was 64.2%. For the same molecule, the bioavailability in data set [9] was determined as 91.3%. For the same molecule, in data set [11], the clearance is 128 mL/min/kg.

On to `C=CCn1c(=O)c2cnc(Nc3ccc(N4CCN(C)CC4)cc3)nc2n1-c1ccc2c(n1)[C@@](O)(CC)CC2` [AZENOSERTIB], for which the IC50 in the data set on LoVo [1] stood at 317 nM; at Wee1-like protein kinase [6] it was 567 nM. The inhibition in vivo at 60 mg/kg with LoVo [3] was 80%.

As for `C=CCn1c(=O)c2cnc(Nc3ccc(N4CCN(CCO)CC4)cc3)nc2n1-c1cccc(-c2cnccn2)n1`, the area under the curve AUC(0-t) at 24 h in data set [2] was found to be 74.3 ng·h/mL; in [12], 2440 ng·h/mL. Further, the half-life is 1.3 h in [4] and 4.68 h in [14]. Further, the distribution volume (Vd) in [5] turned out to be 17 L/kg. For the same molecule, the IC50 at Wee1-like protein kinase [7] was determined as 2.9 nM; in the data set on A-427, 105 nM. In addition, the figures for the remaining at 1 h in data set [8] and in [13] were 56% and 71.2%, respectively. For the same molecule, the bioavailability in data set [9] was determined as 54.9%. The clearance in data set [11] is 218 mL/min/kg.

With `C=CCn1c(=O)c2cnc(Nc3ccc(C4CCN(C)CC4)cc3)nc2n1-c1cccc(-c2ncccn2)n1`, the results for the exposure AUC(0-t) at 24 h in data set [2] and in data set [12] were 236 ng·h/mL and 4280 ng·h/mL, respectively. Moreover, the half-life in data set [4] was 1.51 h; in [14], 3.55 h. Moreover, the distribution volume (Vd) in data set [5] is 9.03 L/kg. Also, the half-maximal inhibitory concentration (IC50) on Wee1-like protein kinase [7] worked out at 2.1 nM; with A-427, 334 nM. In addition, the remaining at 1 h in data set [8] was found to be 79.4%; in data set [13], 67.3%. Moreover, in [9], the bioavailability was 30.3%. In [11], this molecule showed a clearance of 69.5 mL/min/kg.

`C=CCn1c(=O)c2cnc(Nc3ccc(N4CCN(C)CC4)cc3)nc2n1-c1cccc(-c2ncccn2)n1`: the concentration for half-maximal inhibition (IC50) in the data set with LoVo [1] came to 557 nM; at Wee1-like protein kinase [6], 465 nM; at Wee1-like protein kinase [7], 2.2 nM; with A-427, 399 nM. In addition, the AUC(0-t) at 24 h came out at 403 ng·h/mL in data set [2] and 14800 ng·h/mL in data set [12]. Further, the half-life in data set [4] is 1.19 h; in data set [14], 1.74 h. Also, the volume of distribution (Vd) in data set [5] amounted to 4.24 L/kg. In addition, the remaining at 1 h was found to be 63.9% in [8] and 79.8% in data set [13]. The molecule further showed a bioavailability in [9] of 61.1%. The clearance in [11] is 41.2 mL/min/kg.

As for `C=CCn1c(=O)c2cnc(Nc3ccc(N4CCN(C)CC4)cc3)nc2n1-c1cccc(C(C)(C)O)n1` [ADAVOSERTIB], the concentration for half-maximal inhibition (IC50) in the data set on LoVo [1] turned out to be 328 nM; with A-427 it was 311 nM. In addition, the figures for the AUC(0-t) at 24 h in data set [2] and in data set [12] were 47.1 ng·h/mL and 2320 ng·h/mL, respectively. For the same molecule, the inhibition in vivo at 60 mg/kg with LoVo [3] came out at 70%. Moreover, the half-life is 0.59 h in data set [4] and 1.67 h in [14]. In data set [5], this molecule returned a Vd of 16.1 L/kg. Further, the remaining at 1 h in data set [8] amounted to 9.67%; in data set [13], 32.7%. Further, the bioavailability in data set [9] turned out to be 82.1%. In addition, in data set [15], the Activity result was “Toxic”. This molecule also gave a clearance in [11] of 350 mL/min/kg.

Source of the values: ChEMBL document CHEMBL5512688 (J Med Chem, 2024).
